Drawing on BindingDB's records for doi:10.1021/jm990250u (Hoechst Marion Roussel, 1999), this text covers IC50 for 7 compounds.

Molecules are shown by their SMILES. pIC50: −log10 of the molar value.

The experiment addresses Stromelysin-1 (Homo sapiens, UniProt P08254). Briefly: Inhibitory concentration against human matrix metalloprotease-3 (MMP-3).

Chain of Stromelysin-1 (P08254 whole entry): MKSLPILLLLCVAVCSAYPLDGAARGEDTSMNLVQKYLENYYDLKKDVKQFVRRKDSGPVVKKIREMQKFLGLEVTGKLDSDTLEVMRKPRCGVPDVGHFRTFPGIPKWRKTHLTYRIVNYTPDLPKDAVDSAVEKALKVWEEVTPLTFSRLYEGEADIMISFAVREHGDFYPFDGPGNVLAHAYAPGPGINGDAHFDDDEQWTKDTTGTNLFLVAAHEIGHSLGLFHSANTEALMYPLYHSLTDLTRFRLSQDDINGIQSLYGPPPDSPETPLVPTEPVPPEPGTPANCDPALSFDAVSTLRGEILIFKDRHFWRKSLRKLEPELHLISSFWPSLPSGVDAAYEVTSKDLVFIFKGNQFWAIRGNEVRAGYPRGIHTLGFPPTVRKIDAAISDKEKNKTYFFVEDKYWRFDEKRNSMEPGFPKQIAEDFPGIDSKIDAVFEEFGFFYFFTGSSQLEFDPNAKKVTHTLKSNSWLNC

On to `CSc1nccc(-c2ccc(S(=O)(=O)N3Cc4ccccc4CC3C(=O)O)s2)n1` (configuration not stated), for which the pIC50 (as a rule, the IC50 on a negative log10 scale, so that one unit is a factor of ten) was 5.00. The result for `O=C(NO)C1Cc2ccccc2CN1S(=O)(=O)c1cc(Br)c(Br)s1` (configuration not stated) [2-(4,5-Dibromo-thiophene-2-sulfonyl)-1,2,3,4-tetrahydro-isoquinoline-3-carboxylic acid hydroxyamide] reads 5.00; that for `O=C(NO)C1Cc2ccccc2CN1S(=O)(=O)c1cc(S(=O)(=O)c2ccccc2)cs1` (configuration not stated) [2-(4-Benzenesulfonyl-thiophene-2-sulfonyl)-1,2,3,4-tetrahydro-isoquinoline-3-carboxylic acid hydroxyamide], 5.00.

`CCCCCCCCCCCCCCCCS(=O)(=O)N1Cc2ccccc2CC1C(=O)NO` (configuration not stated) [2-(Hexadecane-1-sulfonyl)-1,2,3,4-tetrahydro-isoquinoline-3-carboxylic acid hydroxyamide] had a negative-log IC50 (pIC50) of 5.00.

In turn, `O=C(NO)C1Cc2ccccc2CN1S(=O)(=O)Cc1ccccc1` (configuration not stated) [2-Phenylmethanesulfonyl-1,2,3,4-tetrahydro-isoquinoline-3-carboxylic acid hydroxyamide] showed a pIC50 of 5.00. Consider `O=C(Nc1cccc(S(=O)(=O)N2Cc3ccccc3CC2C(=O)NO)c1)c1ccccc1O` (configuration not stated) [2-[3-(2-Hydroxy-benzoylamino)-benzenesulfonyl]-1,2,3,4-tetrahydro-isoquinoline-3-carboxylic acid hydroxyamide], for which the pIC50 is 5.00.

As for `COc1ccc(S(=O)(=O)N2Cc3ncn(C)c3C[C@@H]2C(=O)O)cc1` [(R)-5-(4-Methoxy-benzenesulfonyl)-1-methyl-4,5,6,7-tetrahydro-1H-imidazo[4,5-c]pyridine-6-carboxylic acid], the pIC50 was 5.00.
